The source of these data is patent publication US7998681B2, “Diagnosis and therapy of antibody-mediated inflammatory auto-immune disorders” (Los Angeles Biomedical Research Institute at Harbor-UCLA …, priority 2000, dated 2011).

The assay has as its system fibroblasts from individuals without known thyroid disease. The experiment in a line: T lymphocyte migration (chemotaxis) assay of conditioned medium from treated fibroblasts, normal donors. The assay is classed as cell-based, human. As to conditions: IgG 100 ng/ml, IL-1β 10 ng/ml, 24 hours. As to the method: The general migration assay is described in detail in Sciaky, D., et al., “Cultured human fibroblasts express constitutive IL-16 mRNA: Cytokine induction of active IL-16 protein synthesis through a caspase-3-dependent mechanism,” J. Immunol. 164(7):3806-14 (2000), hereby incorporated fully by reference. Briefly, fibroblasts from TAO and normal orbital tissue were seeded in 24-well arrays and grown to confluence. Monolayers were shifted containing 1% FBS to which nothing, purified normal or TAO IgG was added for various time intervals. Medium was collected and stored until use at −80° C. Chemotaxis was examined using Boyden chambers to which NWNA-T lymphocytes were added as the cellular targets. 50 μl cell suspension (10^7 cells/ml) were placed in the upper compartments of 48-well micro-chemotaxis chambers separated from 32 μl of serum samples by 8 μm micropore nitrocellulose filters (Neuroprobe). These were incubated at 37° C. in 5% CO2 environment for 3 hr. Filters were fixed, stained with hematoxylin, dehydrated, mounted on glass slides and viewed by light microscopy. Lymphocyte migration was quantified by counting the total number of cells migrating beyond a fixed depth. This depth was set to routinely identify a baseline migration under control conditions of 10-15 cells per high power field. Five such fields were counted in duplicate for each sample and the means±SD were calculated and expressed as percentage values of baseline cell migration in control buffer alone (100%). For each set of experimental conditions, at least three separate determinations were performed. Differences between experimental groups were analyzed by the Student t test using absolute values obtained for lymphocyte migration and statistical difference was accepted at the 95% level of confidence.
To assess specificity for IL-16, experiments were conducted by incubating samples of culture media for 15 min with neutralizing concentrations of anti-IL-16 MAB (clone 14. 1, 10 μg/ml), which blocks the chemotactic activity of 50 ng/ml of rIL-16. Anti-RANTES MAB (5 μg/ml) having an ND50 of 200 ng/ml rRANTES was used to neutralize RANTES as described in Sciaky D., Brazer, W., Center, D. M., Cruikshank, W. W. and Smith, T. J.: Cultured human fibroblasts express constitutive IL-16 mRNA: Cytokine induction of active IL-16 protein synthesis through a caspase-3-dependent mechanism. J. Immunol. 164(7):3806-14, 2000).
Referring to FIGS. 3A-3C, serum concentrations of IL-16 are elevated in patients with active TAO. Moreover, both IL-16 and PGHS-2 protein can be detected in TAO orbital tissue. The concentration of IL-16 is determined in sera from either patients with Graves' disease or normal controls. The sera are subjected to an ELISA assay, which utilizes an anti-IL-16 specific antibody. IL-16 is detected by standard immunohistochemical techniques in thin sections harvested from affected orbital connective tissues from a patient with severe Graves' ophthalmopathy. In a separate measurement of IL-16 dependent T-cell migration, a panel of 11 different fibroblast strains from patients with Graves' disease and 5 from individuals without known thyroid disease were challenged with Graves' IgG (100 ng/ml), normal IgG (100 ng/ml) or IL-1β (10 ng/ml) for 24 hours and assessed for T cell migration activity and IL-16 production (Table II). Graves' IgG induced IL-16 dependent cell migration in 10 of the Graves' fibroblast strains which derived from orbit and skin from various anatomic regions. Included were strains from the pretibial skin as well as the abdominal wall and the neck. The latter two sites rarely manifest Graves' disease. A substantial fraction of Graves' IgG provoked T cell migration activity in most of these strains was resistant to neutralization with anti-IL-16. Similarly, chemoattractants produced by RA fibroblasts can be measured by T-cell migration. […]

In the case of “IL-1β: pro-inflammatory cytokine used to activate fibroblasts”, the “T Cell Migration (% control)” value is, setting by setting: (strain 12, Orbit) 168 +/− 11 % control; (strain 14, Orbit) 189 +/− 10 % control; (strain 15, Extremity Skin) 197 ± 10 % control; (strain 16, Extremity Skin) 201 ± 7 % control. For the same substance, the “T Cell Migration +anti-IL-16” value is, setting by setting: (strain 12, Orbit) 143 +/− 9 % control; (strain 14, Orbit) 154 +/− 8 % control; (strain 15, Extremity Skin) 153 ± 9 % control; (strain 16, Extremity Skin) 155 ± 8 % control. The “T Cell Migration +anti-RANTES” value is recorded as 156 +/− 9 % control (strain 12, Orbit); 159 +/− 9 % control (strain 14, Orbit); 172 ± 9 % control (strain 15, Extremity Skin); 173 ± 7 % control (strain 16, Extremity Skin).
